According to ChEMBL document CHEMBL1136191, “Cyclin-dependent kinase 4 inhibitors as a treatment for cancer. Part 1: identification and optimisation of substituted 4,6-bis anilino pyrimidines” (Bioorg Med Chem Lett, 2003):

Experiments:
[1] = target: Cyclin-dependent kinase 2 (Homo sapiens, UniProt P24941); experiment: In vitro inhibition of Cyclin-dependent kinase 2 was determined.
[2] = target: Cyclin-dependent kinase 4 (Homo sapiens, UniProt P11802); experiment: In vitro inhibition of Cyclin-dependent kinase 4 was determined.
Sequence of Cyclin-dependent kinase 4 (P11802 whole entry): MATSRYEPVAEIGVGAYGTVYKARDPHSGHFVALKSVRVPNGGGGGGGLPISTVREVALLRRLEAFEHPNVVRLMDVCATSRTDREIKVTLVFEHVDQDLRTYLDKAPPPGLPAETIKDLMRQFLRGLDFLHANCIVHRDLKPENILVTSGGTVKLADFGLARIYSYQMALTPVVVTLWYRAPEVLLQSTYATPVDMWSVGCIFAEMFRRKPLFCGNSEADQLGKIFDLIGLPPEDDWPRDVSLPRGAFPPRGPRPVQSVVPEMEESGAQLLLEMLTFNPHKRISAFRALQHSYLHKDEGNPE

Row | SMILES | IC50 [1] [µM] | IC50 [2] [µM]
1 | COc1ccccc1Nc1cc(Nc2ccc(OCC(O)CN(C)C)cc2)ncn1 (configuration not stated) | 85 | 23
2 | CN(C)CC(O)COc1ccc(Nc2cc(N(CCC#N)c3cc(Cl)ccc3Cl)ncn2)cc1 (configuration not stated) | 5 | 0.5
3 | CN(C)CC(O)COc1ccc(Nc2cc(Nc3ccccc3F)ncn2)cc1 (configuration not stated) | > 100 | 27
4 | CN(C)CC(O)COc1ccc(Nc2cc(Nc3ccccc3[N+](=O)[O-])ncn2)cc1 (configuration not stated) | 25 | 2
5 | CN(C)CC(O)COc1ccc(Nc2cc(Nc3cc(C(F)(F)F)ccc3F)ncn2)cc1 (configuration not stated) | – | 6
6 | CN(C)CC(O)COc1ccc(Nc2cc(Nc3c(F)cccc3F)ncn2)cc1 (configuration not stated) | – | 9
7 | CN(C)CC(O)COc1ccc(Nc2cc(N(Cc3ccccc3)c3cc(Cl)ccc3Cl)ncn2)cc1 (configuration not stated) | > 100 | 5
8 | CN(C)CC(O)COc1ccc(Nc2cc(N(CC#N)c3cc(Cl)ccc3Cl)ncn2)cc1 (configuration not stated) | 1 | 0.05
9 | Cc1ccccc1Nc1cc(Nc2ccc(OCC(O)CN(C)C)cc2)ncn1 (configuration not stated) | 39 | 8
10 | CN(C)CC(O)COc1ccc(Nc2cc(Nc3ccccc3Br)ncn2)cc1 (configuration not stated) | 28 | 4
11 | CN(C)CC(O)COc1ccc(Nc2cc(Nc3ccccc3)ncn2)cc1 (configuration not stated) | > 100 | 33

More lines, in order of falling IC50 [2], values ahead:

Row | IC50 [1] [µM] | IC50 [2] [µM] | SMILES
12 | 24 | 18 | CC(C)c1ccccc1Nc1cc(Nc2ccc(OCC(O)CN(C)C)cc2)ncn1 (configuration not stated)
13 | 93 | 15 | CN(C)CC(O)COc1ccc(Nc2cc(Nc3ccc(F)cc3F)ncn2)cc1 (configuration not stated)
14 | 95 | 8 | CN(C)CC(O)COc1ccc(Nc2cc(Nc3ccccc3Cl)ncn2)cc1 (configuration not stated)
15 | 22 | 1 | CN(C)CC(O)COc1ccc(Nc2cc(Nc3cc(Cl)ccc3Cl)ncn2)cc1 (configuration not stated)
16 | 19 | 0.8 | C#CCN(c1cc(Nc2ccc(OCC(O)CN(C)C)cc2)ncn1)c1cc(Cl)ccc1Cl (configuration not stated)
17 | 3 | 0.1 | Cc1ccc(N(CC#N)c2cc(Nc3ccc(OCC(O)CN(C)C)cc3)ncn2)c(Br)c1 (configuration not stated)
